Reference: article PMC6153520, “Proteasome inhibition and mechanism of resistance to a synthetic, library-based hexapeptide” (Investigational New Drugs, 2018)
Where a SMILES comes first, the peptide text is derived from it. [ ]: non-standard residue; d: D form. The star is where a group is joined. His(τ-Bzl) = N[C@@H](Cc1cn(Cc2ccccc2)cn1)C(=O)O; Nle = CCCC[C@H](N)C(=O)O; NHBn = c1ccc(CN*)cc1; Bn = c1ccc(C*)cc1; OtBu = CC(C)(C)O*; tBu = CC(C)(C)*

Key:
proteasome β5 subunit [1] = target: T1, proteasome β5 subunit (Mus musculus, UniProt O55234); assay: Proteasome affinity labelling in EL4 cells; format: cell-based; details: EL4 cells pre-exposed for 2–24 h
T1 construct: Activity probing of constitutive and immunoproteasome β-subunits in EL4 cells; endogenous in cells; host or cells: EL4 mouse thymoma cells
Experimental: Proteasome activity profiling assays were performed as described using a close analog of the BodipyFL probe. Briefly, mouse EL4 thymoma cells were incubated at 37 °C for 2 or 24 h with increasing concentrations of 4A6, followed by a 1 h chase with 500 nM probe. […] Cells were harvested and lysed for 30 min in NP40 lysis buffer (50 mM Tris, pH 7.4, 150 mM NaCl, 1% NP40) at 4°C. The Bradford assay was used to measure protein content. Proteins were denatured by boiling in reducing sample buffer and analyzed by 12% SDS-PAGE using NuPAGE pre-cast gels (Invitrogen). Gels were then scanned for fluorescence emission using a ProXPRESS 2D Proteomic imaging system (Perkin Elmer). Images were analyzed using Totallab analysis software (Nonlinear Dynamics, Newcastle upon Tyne, UK). Sypro staining served as a loading control.

[2] = test system: bortezomib-resistant cells (THP1/BTZ200); assay: Western blot, accumulation of ubiquitinated proteins; format: cell-based, human; details: 24 h, same concentrations as in THP1/WT
Experimental: (§1) Western blot analysis to determine protein levels of (i) β1, β2 and β5 proteasome subunits and (ii) the accumulation of ubiquitinated proteins after treatment with 4A6 was performed essentially as described previously. Cells were harvested in the mid-log phase of growth and washed 3 times with ice-cold buffered saline pH 7.4. Total cell lysates of 5 × 10^6 cells were prepared by resuspension in 500 μl lysis buffer containing: 50 mM Tris-HCl (pH 7.6), 5 mM dithiotreitol, 20 μl PIC (Protease Inhibitor Cocktail; 1 tablet/ml H2O), 20% glycerol and 0.5% NP-40. The suspension was sonicated (MSE sonicator, amplitude 7, for 3 × 5 s with 20 s time intervals at 4 °C) and centrifuged in an Eppendorf micro centrifuge (5 min, 12,000 rpm, 4 °C). Protein content of the supernatant was determined by the Bio-Rad protein assay. 20–30 μg of total cell lysates were fractionated on a 10% polyacrylamide gel containing SDS and transferred onto a PVDF membrane. The membranes were pre-incubated overnight at 4 °C in blocking buffer (5% Bio-Rad Blocker in TBS-T; 10 mM Tris-HCl, pH 8.0, 0.15 M NaCl, 0.1% Tween-20) to prevent non-specific antibody binding. After blocking, the membranes were incubated for 1 h at room temperature with primary antibodies for proteasome subunit β1 (1:1000, PW8140), β2 (1:1000, PW8145) and β5 (1:1000, PW8895) or ubiquitin (1:1000, Santa-Cruz, SC-8017). An antibody to α-tubulin was used (1:1000, Santa Cruz, sc-8035) to check and normalize for any loading differences. After 3 washing steps with TBS-T, the membranes were incubated for 1 h with HRP-labelled donkey-anti-rabbit (1:6000, Amersham, UK) or goat-anti-mouse (1:6000, Dako, Glostrup, Denmark) as secondary antibody. Detection of antibody binding was followed by chemoluminescence using Supersignal (Pierce Biotechnology, Rockford, USA) according to the manufacturers’ instructions. […] The signal intensity was determined densitometrically using Quantity One software (Bio-Rad) and was expressed relative to the intensity of the α-tubulin signal.

THP1/WT cells = assay: as above; format: cell-based, human; details: 24 h exposure
Experimental: as §1

proteasome β1 subunit = assay: Western blot, proteasome subunit expression; format: cell-based, human; details: 0.1–10 μM, 24 h; THP1/WT, THP1/BTZ100, THP1/BTZ (−100)
Experimental: as §1

proteasome β5 subunit [3] = assay: Western blot, proteasome subunit expression; format: cell-based, human; details: 10 μM 4A6, 24 h; THP1/WT, THP1/BTZ100 and THP1/BTZ (−100); densitometry
Experimental: as §1

proteasome β2 subunit = assay: Western blot, proteasome subunit expression; format: cell-based, human; details: 0.1–10 μM, 24 h; THP1/WT, THP1/BTZ100, THP1/BTZ (−100)
Experimental: as §1

THP1/BTZ100 = format: cell-based, human; details: 72 h
Experimental: (§2) Human monocytic/macrophage THP1 cells (ATTC, Manassas, USA) were cultured in RPMI-1640 medium supplemented with 5% fetal calf serum, 20 mM HEPES, 2 mM glutamine and 100 μg/ml penicillin/ streptomycin at 5% CO2 and 37 °C. Cell cultures were seeded at a density of 3 × 10^5 cells/ml and refreshed twice weekly. […] Some specific experiments also included THP1/BTZ100 cells that were cultured in the absence of BTZ for 6 months (further designated as THP1/BTZ (−100) cells). Mouse thymoma EL4 and human multiple myeloma H929 cells were cultured in RPMI-1640 medium supplemented with 8% fetal calf serum and 100 μg/ml penicillin/streptomycin at 5% CO2 and 37 °C.
(§3) Evaluation of drug sensitivity was carried out as described before. Cells were seeded at an initial density of 1.25 × 10^5 cells/ml in individual wells of a 24-well plate containing up to 50 μl of drug solutions. Inhibition of cell growth was determined after 72 h of incubation at 37 °C by determining the number of viable cells […] using trypan blue exclusion. The drug concentration required to inhibit cell growth by 50% compared to untreated controls was defined as the IC50.

THP1/WT = format: cell-based, human
Experimental: as §2, §3

THP1/BTZ (−100) cells = format: cell-based, human; details: 72 h
Experimental: as §2, §3

[4] = test system: P-glycoprotein (Pgp/ABCB1); design: method as in PMID 11289130; details: ref [32]; cited from earlier work
[5] = target: T2, chymotrypsin-like proteasome activity (Homo sapiens, UniProt P28074); assay: Proteasome-Glo cell-based assay in intact THP1 cells
T2 construct: chymotrypsin-like proteasome activity in intact THP1 cells after 1 h exposure; endogenous in cells; host or cells: THP1 (wild type)

THP1/BTZ200 = assay: Growth inhibition assay (72 h, trypan blue); format: cell-based, human; details: relative to IC50 in THP1/WT
Experimental: as §2, §3

THP1/BTZ50 = assay: Growth inhibition assay (72 h, trypan blue); format: cell-based, human; details: relative to IC50 in THP1/WT
Experimental: as §2, §3

THP1 cells = assay: Growth inhibition with or without Ruthenium Red; format: cell-based, human; details: 72 h, with or without 25 μM Ruthenium Red
Experimental: as §3

With `CCCC[C@H](NC(=O)[C@@H](NC(=O)[C@H](Cc1cn(Cc2ccccc2)cn1)NC(=O)[C@@H](NC(C)=O)[C@@H](C)OC(C)(C)C)[C@@H](C)OCc1ccccc1)C(=O)N[C@@H](CCC(=O)OC(C)(C)C)C(=O)NCC(=O)NCc1ccccc1` [4A6, Ac-Thr(tBu)-His(Bzl)-Thr(Bzl)-Nle-Glu(OtBu)-Gly-Bza] (Ac-T(tBu)[His(τ-Bzl)]T(Bn)[Nle]E(OtBu)G-NHBn) the “concentration giving complete inhibition of the β5 subunit” value (proteasome β5 subunit [1]) was greater than 5 µM, the “accumulation of ubiquitinated proteins” value [2] was “did not provoke any accumulation of ubiquitinated proteins” and the “accumulation of ubiquitinated proteins” value (THP1/WT cells) was “marked accumulation of ubiquitinated proteins”. For the same compound, the “effect on expression of the β1 proteasome subunit” value (proteasome β1 subunit) was “No significant effects”, the “increase in β5 subunit induction vs drug-free controls” value (proteasome β5 subunit [3]) was 3–5 fold and the “effect on expression of the β2 proteasome subunit” value (proteasome β2 subunit) was “No significant effects”. For the same compound, the IC50 (THP1/BTZ100) was greater than 25 µM, the “[Resistance Factor] THP1/BTZ100” value (THP1/BTZ100; relative to IC50 in THP1/WT) was 117 and the IC50 (THP1/WT; 72 h) was 0.26 ± 0.06 µM. The “[Resistance Factor] THP1/WT” value (THP1/WT; reference value in square brackets) was 1, the IC50 (THP1/BTZ (−100) cells) was 10 µM and the “ability to reverse efflux pump MDR (ABCB1)” value [4] was “lacked the ability to reverse efflux pump MDR”. For the same compound, the “substrate of MDR efflux transporter ABCB1” value [4] was “substrate”, the “potency fold lower than BTZ, chymotrypsin-like proteasome activity” value [5] was 28 fold and the “[Resistance Factor] THP1/BTZ200” value (THP1/BTZ200) was 287. The “[Resistance Factor] THP1/BTZ50” value (THP1/BTZ50) was 44 and the “effect of Ruthenium Red on growth inhibitory activity (protection)” value (THP1 cells) was “no effect”.
